Assay results reported in patent US20070049564A1 (Wyeth, priority 2005, published 2007).
In brackets after ≈: the same amount, converted by molar mass. Like-named read-outs stand apart in the source and are kept apart here.

How the values were obtained:
[1] = test system: S. cholerasius GC 1355; assay: MIC, broth microdilution
Experimental: (§1) Antimicrobial susceptibility testing. The in vitro activities of the antibiotics are determined by the broth microdilution method as recommended by the National Committee for Clinical Laboratory Standards (NCCLS) (1). Mueller-Hinton II broth (MHBII)(BBL Cockeysville, Md.) is the medium employed in the testing procedures. Microtiter plates containing serial dilutions of each antimicrobial agent are inoculated with each organism to yield the appropriate density (10^5 CFU/ml) in a 100 μl final volume. The plates are incubated for 18-22 hours at 35° C. in ambient air.
(§2) Presented in Tables I-XIII are representative compounds of Formula I which were evaluated against a panel of 40 selected gram-positive and gram-negative bacteria strains by pre-incubation in water, mouse serum or human serum. Representative compounds were first incubated in mouse serum for an hour prior to the in vitro testing against a panel of selected gram-positive and gram-negative bacteria strains. All compounds were also pre-incubated in water for an hour prior to testing as control. Representative compounds of Formula I were incubated in human serum prior to MIC determination.

[2] = test system: Salmonella spp. GC 235; assay: MIC, broth microdilution
Experimental: as §1
Representative compounds were first incubated in mouse serum for an hour prior to the in vitro testing against a panel of selected gram-positive and gram-negative bacteria strains. All compounds were also pre-incubated in water for an hour prior to testing as control.

[3] = test system: Salmonella spp. GC 566; assay: MIC, broth microdilution; details: Salmonella
Experimental: as §1, §2

[4] = test system: E. coli #311; assay: In vivo activity (oral, iv; ED50) against E. coli in mice; details: Escherichia coli
Excerpt: . […] Smith and E. Coli #311 in mammals.
Results of the tests (MIC, oral and IV) are list in Table 7.

[5] = S. cholerasius GC 1355, Mouse Serum pre-incubation
[6] = S. cholerasius GC 1355, Water pre-incubation
[7] = Salmonella, SPP.GC235, Salmonella spp. GC 235, Mouse Serum pre-incubation
[8] = Salmonella, SPP.GC235, Salmonella spp. GC 235, Water pre-incubation
[9] = SPP.GC566, Salmonella spp. GC 566, Mouse Serum pre-incubation
[10] = SPP.GC566, Salmonella spp. GC 566, Water pre-incubation

CCCN(CC(=O)Nc1cc(N(C)C)c2c(c1O)C(=O)C1=C(O)[C@]3(O)C(=O)C(C(N)=O)=C(O)[C@@H](N(C)C)[C@@H]3C[C@@H]1C2)C(=O)OCOC(=O)C(C)C [Example 10, ({[(2-{[(5aR,6aS,7S,10aS)-9-(aminocarbonyl)-4,7-bis(dimethylamino)-1,8,10a,11-tetrahydroxy-10,12-dioxo-5,5a,6,6a,7,10,10a,12-octahydrotetracen-2-yl]amino}-2-oxoethyl)(propyl)amino]carbonyl}oxy)methyl 2-methylpropanoate]
MIC [1, 5]: 16 µg/mL (≈ 22.4 µM) | MIC [1, 6]: > 64 µg/mL | MIC [2, 7]: 0.5 µg/mL (≈ 0.699 µM) | MIC [2, 8]: 32 µg/mL (≈ 44.7 µM) | MIC [3, 9]: 2 µg/mL (≈ 2.79 µM) | MIC [3, 10]: > 64 µg/mL

CCCN(CC(=O)Nc1cc(N(C)C)c2c(c1O)C(=O)C1=C(O)[C@]3(O)C(=O)C(C(N)=O)=C(O)[C@@H](N(C)C)[C@@H]3C[C@@H]1C2)C(=O)OCOC(=O)c1ccc(OC)cc1 [Example 6, ({[(2-{[(5aR,6aS,7S,10aS)-9-(aminocarbonyl)-4,7-bis(dimethylamino)-1,8,10a,11-tetrahydroxy-10,12-dioxo-5,5a,6,6a,7,10,10a,12-octahydrotetracen-2-yl]amino}-2-oxoethyl)(propyl)amino]carbonyl}oxy)methyl 4-methoxybenzoate]
MIC [1, 5]: 16 µg/mL (≈ 20.5 µM) | MIC [1, 6]: > 64 µg/mL | MIC [2, 7]: 2 µg/mL (≈ 2.56 µM) | MIC [2, 8]: 16 µg/mL (≈ 20.5 µM) | MIC [3, 9]: 4 µg/mL (≈ 5.13 µM) | MIC [3, 10]: 64 µg/mL (≈ 82.1 µM)

CCCN(CC(=O)Nc1cc(N(C)C)c2c(c1O)C(=O)C1=C(O)[C@]3(O)C(=O)C(C(N)=O)=C(O)[C@@H](N(C)C)[C@@H]3C[C@@H]1C2)C(=O)OCc1ccccc1 [Example 14, benzyl 2-{[(5aR,6aS,7S,10aS)-9-(aminocarbonyl)-4,7-bis(dimethylamino)-1,8,10a,11-tetrahydroxy-10,12-dioxo-5,5a,6,6a,7,10,10a,12-octahydrotetracen-2-yl]amino}-2-oxoethyl(propyl)carbamate]
MIC [1, 5]: > 64 µg/mL | MIC [1, 6]: > 64 µg/mL | MIC [2, 7]: > 64 µg/mL | MIC [2, 8]: > 64 µg/mL | MIC [3, 9]: > 64 µg/mL | MIC [3, 10]: > 64 µg/mL

CCCCN(CC(=O)Nc1cc(N(C)C)c2c(c1O)C(=O)C1=C(O)[C@]3(O)C(=O)C(C(N)=O)=C(O)[C@@H](N(C)C)C3CC1C2)C(=O)OCc1oc(=O)oc1C (stereo partly drawn) [Example 109, (5-methyl-2-oxo-1,3-dioxol-4-yl)methyl 2-{[(7S,10aS)-9-(aminocarbonyl)-4,7-bis(dimethylamino)-1,8,10a,11-tetrahydroxy-10,12-dioxo-5,5a,6,6a,7,10,10a,12-octahydrotetracen-2-yl]amino}-2-oxoethyl(butyl)carbamate]
MIC ([1]; pre-incubation in mouse serum): 8 µg/mL (≈ 10.8 µM) | MIC ([1]; pre-incubation in water): 32 µg/mL (≈ 43.1 µM) | MIC ([2]; Salmonella, SPP.GC235, pre-incubation in mouse serum): 1 µg/mL (≈ 1.35 µM) | MIC ([2]; Salmonella, SPP.GC235, pre-incubation in water): 2 µg/mL (≈ 2.7 µM) | MIC ([2]; pre-incubation in water): 4 UG/ML | MIC ([3]; SPP.GC566, pre-incubation in mouse serum): 2 µg/mL (≈ 2.7 µM) | MIC ([3]; SPP.GC566, pre-incubation in water): 4 µg/mL (≈ 5.39 µM)

CCCCN(CC(=O)Nc1cc(N(C)C)c2c(c1O)C(=O)C1=C(O)[C@]3(O)C(=O)C(C(N)=O)=C(O)[C@@H](N(C)C)[C@@H]3C[C@@H]1C2)C(=O)OCOC(=O)c1ccc(F)cc1 [Example 4, ({[(2-{[(5aR,6aS,7S,10aS)-9-(aminocarbonyl)-4,7-bis(dimethylamino)-1,8,10a,11-tetrahydroxy-10,12-dioxo-5,5a,6,6a,7,10,10a,12-octahydrotetracen-2-yl]amino}-2-oxoethyl)(butyl)amino]carbonyl}oxy)methyl 4-fluorobenzoate]
MIC [1, 5]: 8 µg/mL (≈ 10.2 µM) | MIC [1, 6]: > 64 µg/mL | ED50 ([4]; single intravenous dose (SIV), read-out: ED50 E. coli #311 SIV): > 2 mg/kg | ED50 ([4]; single oral dose (SOD), read-out: ED50 E. coli #311 SOD): > 32 mg/kg | MIC [2, 7]: 2 µg/mL (≈ 2.56 µM) | MIC [2, 8]: > 64 µg/mL | MIC [3, 9]: 4 µg/mL (≈ 5.12 µM) | MIC [3, 10]: > 64 µg/mL

CCCCN(CC(=O)Nc1cc(N(C)C)c2c(c1O)C(=O)C1=C(O)[C@]3(O)C(=O)C(C(N)=O)=C(O)[C@@H](N(C)C)[C@@H]3C[C@@H]1C2)C(=O)OCOC(=O)C(C)(C)C [Example 13, ({[(2-{[(5aR,6aS,7S,10aS)-9-(aminocarbonyl)-4,7-bis(dimethylamino)-1,8,10a,11-tetrahydroxy-10,12-dioxo-5,5a,6,6a,7,10,10a,12-octahydrotetracen-2-yl]amino}-2-oxoethyl)(butyl)amino]carbonyl}oxy)methyl pivalate]
MIC [1, 5]: 16 µg/mL (≈ 21.5 µM) | MIC [1, 6]: > 64 µg/mL | MIC [2, 7]: 2 µg/mL (≈ 2.69 µM) | MIC [2, 8]: 16 µg/mL (≈ 21.5 µM) | MIC [3, 9]: 8 µg/mL (≈ 10.8 µM) | MIC [3, 10]: 64 µg/mL (≈ 86 µM)

CCCN(CC(=O)Nc1cc(N(C)C)c2c(c1O)C(=O)C1=C(O)[C@]3(O)C(=O)C(C(N)=O)=C(O)[C@@H](N(C)C)[C@@H]3C[C@@H]1C2)C(=O)OCOC(=O)c1ccc(F)cc1 [Example 8, ({[(2-{[(5aR,6aS,7S,10aS)-9-(aminocarbonyl)-4,7-bis(dimethylamino)-1,8,10a,11-tetrahydroxy-10,12-dioxo-5,5a,6,6a,7,10,10a,12-octahydrotetracen-2-yl]amino}-2-oxoethyl)(propyl)amino]carbonyl}oxy)methyl 4-fluorobenzoate]
MIC [1, 5]: 32 µg/mL (≈ 41.7 µM) | MIC [1, 6]: > 64 µg/mL | MIC [2, 7]: 4 µg/mL (≈ 5.21 µM) | MIC [2, 8]: 64 µg/mL (≈ 83.4 µM) | MIC [3, 9]: 4 µg/mL (≈ 5.21 µM) | MIC [3, 10]: > 64 µg/mL

CCCN(CC(=O)Nc1cc(N(C)C)c2c(c1O)C(=O)C1=C(O)[C@]3(O)C(=O)C(C(N)=O)=C(O)[C@@H](N(C)C)[C@@H]3C[C@@H]1C2)C(=O)OCC(C)C [Example 16, isobutyl 2-{[(5aR,6aS,7S,10aS)-9-(aminocarbonyl)-4,7-bis(dimethylamino)-1,8,10a,11-tetrahydroxy-10,12-dioxo-5,5a,6,6a,7,10,10a,12-octahydrotetracen-2-yl]amino}-2-oxoethyl(propyl)carbamate]
MIC [1, 5]: > 64 µg/mL | MIC [1, 6]: > 64 µg/mL | MIC [2, 7]: > 64 µg/mL | MIC [2, 8]: > 64 µg/mL | MIC [3, 9]: > 64 µg/mL | MIC [3, 10]: > 64 µg/mL

CCCCN(CC(=O)Nc1cc(N(C)C)c2c(c1O)C(=O)C1=C(O)[C@]3(O)C(=O)C(C(N)=O)=C(O)[C@@H](N(C)C)[C@@H]3C[C@@H]1C2)C(=O)OCOC(=O)Cc1ccccc1 [Example 12, ({[(2-{[(5aR,6aS,7S,10aS)-9-(aminocarbonyl)-4,7-bis(dimethylamino)-1,8,10a,11-tetrahydroxy-10,12-dioxo-5,5a,6,6a,7,10,10a,12-octahydrotetracen-2-yl]amino}-2-oxoethyl)(butyl)amino]carbonyl}oxy)methyl phenylacetate]
MIC [1, 5]: 16 µg/mL (≈ 20.6 µM) | MIC [1, 6]: > 64 µg/mL | MIC [2, 7]: 1 µg/mL (≈ 1.29 µM) | MIC [2, 8]: 64 µg/mL (≈ 82.3 µM) | MIC [3, 9]: 4 µg/mL (≈ 5.14 µM) | MIC [3, 10]: > 64 µg/mL

CCCCN(CC(=O)Nc1cc(N(C)C)c2c(c1O)C(=O)C1=C(O)[C@]3(O)C(=O)C(C(N)=O)=C(O)[C@@H](N(C)C)C3CC1C2)C(=O)OCOC(=O)c1ccc(C)cc1 (stereo partly drawn) [Example 3, ({[(2-{[(7S,10aS)-9-(aminocarbonyl)-4,7-bis(dimethylamino)-1,8,10a,11-tetrahydroxy-10,12-dioxo-5,5a,6,6a,7,10,10a,12-octahydrotetracen-2-yl]amino}-2-oxoethyl)(butyl)amino]carbonyl}oxy)methyl 4-methylbenzoate]
MIC [1, 5]: 16 µg/mL (≈ 20.6 µM) | MIC [1, 6]: > 64 µg/mL | MIC [2, 7]: 2 µg/mL (≈ 2.57 µM) | MIC [2, 8]: > 64 µg/mL | MIC [3, 9]: 4 µg/mL (≈ 5.14 µM) | MIC [3, 10]: > 64 µg/mL
